Among the data in PubChem BioAssay AID540269 (Sanford-Burnham Center for Chemical Genomics, 2011) are IC50 values, retold here.

Calls of active or inactive are those of the source. How the calls were made is not given here. A value given as a limit tells only on which side of the number the result lay.

For the test, the target named is glucose-6-phosphate dehydrogenase-6-phosphogluconolactonase (Plasmodium falciparum 3D7). Put plainly: PfG6PD enzyme inhibitors, kinetic NADPH readout, dose response, orthogonal assay, biochemical, kinetic NADPH detection (AID 540269). As to conditions: purified PfG6PD-6PGL.

By IC50 is commonly meant the point on the concentration scale where inhibition reaches its midpoint. On to `CC1=C(C)CS(=O)N(S(=O)(=O)c2ccc(Cl)cc2)C1` (stereo not drawn), for which the IC50 is > 80 µM (inactive).

As to `Cc1ccc(NC(=O)c2cc(C)n(-c3ccccc3)c2C)cc1`, the IC50 was > 80 µM (inactive).

Consider `Cc1ccc(C(=O)NCC(=O)NCC(=O)OCC(=O)c2ccc([N+](=O)[O-])cc2)cc1`, for which the IC50 was > 80 µM (inactive).

`C=CCN=c1scc(-c2ccco2)n1/N=C/c1ccc(O)c(O)c1O`: the IC50 was 58.3 µM.

Regarding `O=C(Nc1nnc(S(=O)(=O)N2CCOCC2)s1)c1cccc(Br)c1`, the IC50 is 60.2 µM.

Take `CC(CNc1ccccc1O)C(=O)O` (stereo not drawn): the IC50 was > 80 µM (inactive).

Regarding `CCC(c1ccc(O)c(O)c1)C(CC)c1ccc(O)c(O)c1` (stereo not drawn), the IC50 was > 80 µM (inactive).

Take `CN(CCO)c1cc(Sc2nc3ccccc3s2)c2nonc2c1[N+](=O)[O-]`: the IC50 was > 80 µM (inactive).

Take `O=C(CCl)NCCN1C(=O)S/C(=C\c2cccnc2)C1=O`: the IC50 was > 80 µM (inactive).

`COC1=C(OC)C(=O)C(Sc2ccc3ccccc3c2)=CC1=O`: the IC50 was 23.3 µM.

In the case of `Cc1cc(C)c2c(=O)n(CC(=O)N3CCC(N4CCCCC4)CC3)sc2n1`, the IC50 was 48.4 µM.

Turning to `Cc1ccc(NC(=O)Cn2sc3nc(C)cc(C)c3c2=O)c(Cl)c1`, the IC50 was > 80 µM (inactive).

For the molecule `Cc1nnc(N/N=C\c2ccc(-c3cccc(C(=O)O)c3)o2)n1N`, the IC50 was 40.1 µM.

For `Cc1ccc(Nc2cc(C)c(O)c(C)c2)cc1`, the IC50 is > 80 µM (inactive).

`Cc1ccc2nc(SCC(=O)N/N=C/c3ccco3)cc(C)c2c1`: the IC50 is > 80 µM (inactive).

On to `c1cc2c(cc1NC1CCCCCC1)OCO2`, for which the IC50 was > 80 µM (inactive).

Take `N#C/C(C(=O)Nc1ccc(Cl)cc1)=C(/S)Nc1ccccc1`: the half-maximal inhibitory concentration (IC50) is 41.5 µM.

Turning to `CCn1c2ccccc2c2cc(/C=N/n3cn[nH]c3=S)ccc21`, the 50% inhibitory concentration (IC50) was 9.07 µM.

For the molecule `COc1cc(-c2cc(=O)c3c(O)c(OC)c(OC)c(O)c3o2)ccc1O`, the half-inhibitory concentration (IC50) was 40.3 µM.

For `O=C(Nc1sc2c(c1C(=O)O)CCC2)c1ccc(F)cc1`, the half-inhibitory concentration (IC50) was 41.3 µM.

Take `O=C(O)c1ccc(-n2c(-c3cc(-c4ccco4)[nH]n3)n[nH]c2=S)cc1`: the IC50 is 40.8 µM.

As for `COc1ccc(-c2cn3cc(C)ccc3n2)cc1Br`, the IC50 was > 80 µM (inactive).

Consider `O=[N+]([O-])c1c(NCCCO)cc(Sc2nc3ccccc3s2)c2nonc12`, for which the 50% inhibitory concentration (IC50) is 73.7 µM.

As for `CCNc1nc(NC(C)C)nc(NS(=O)(=O)c2ccc(Cl)cc2)n1`, the IC50 was > 80 µM (inactive).

For the molecule `CC1(OC(=O)C2CCCC2)C(=O)C=C2C=C(c3ccsc3)N(Cc3ccc4c(c3)OCO4)C=C2C1=O` (stereo not drawn), the IC50 is > 80 µM (inactive).

Regarding `COc1cccc(/C=N/NC(=O)CSc2cccc3cccnc23)c1`, the IC50 is 21.7 µM.

For the molecule `Cc1ccccc1-n1c(-c2ccc3ccccc3n2)n[nH]c1=S`, the concentration for half-maximal inhibition (IC50) was 51.3 µM.

For the molecule `CC(=O)Nc1ccc(S(=O)(=O)NNc2cccc(C)c2)cc1`, the IC50 is > 80 µM (inactive).

Consider `Cc1cc(O)c(C(C)C)cc1N=Cc1ccccc1[N+](=O)[O-]`, for which the IC50 is > 80 µM (inactive).

With `Nn1c(CSc2nc3ccccc3o2)nnc1CSc1nc2ccccc2o1`, the IC50 was > 80 µM (inactive).

As to `CC1(C)Nc2ccc(O)cc2-c2c1ssc2=S`, the IC50 was > 80 µM (inactive).

Consider `Cc1nn(-c2ccccc2)c(Cl)c1/C=N/Nc1nc2ccccc2n1C`, for which the IC50 is > 80 µM (inactive).

As for `COc1cc(C(=O)ON=C2C=C(C)C(=O)C(C)=C2)cc(OC)c1OC`, the IC50 is > 80 µM (inactive).

Consider `COc1ccc(Cl)cc1NC(=O)c1cccc([N+](=O)[O-])c1O`, for which the IC50 was > 80 µM (inactive).

Take `CCCCOc1ccc(Cc2n[nH]c(=S)n2N)cc1`: the IC50 was > 80 µM (inactive).

As to `Cc1cc(=O)[nH]c(N/N=C/c2c(C)nn(-c3ccccc3)c2Cl)n1`, the IC50 is 17.1 µM.

On to `Cc1ccc(-c2csc(NC(=O)c3ccc(Br)cc3)c2C(=O)O)cc1`, for which the IC50 is 29.7 µM.

In the case of `NS(=O)(=O)c1ccc(N/N=C/c2ccc(O)c(O)c2O)c([N+](=O)[O-])c1`, the IC50 is > 80 µM (inactive).

For `Cc1cccc(NC2=C(NC(=O)c3ccccc3)C(=O)c3ccccc3C2=O)c1`, the IC50 is > 80 µM (inactive).

For the molecule `COc1ccc(CN(C)S(=O)(=O)c2nnc(NC(=O)c3cccc(C)c3)s2)cc1OC`, the IC50 is 22.2 µM.

Regarding `Cc1noc(C(=O)Nc2sc3c(c2C#N)CCC3)c1Cl`, the IC50 was > 80 µM (inactive).

Take `O=C1C(Cl)=C(NCCc2ccccc2)C(=O)c2ccccc21`: the half-maximal inhibitory concentration (IC50) was 70.3 µM.

For the molecule `Nc1ccc(S(=O)(=O)c2cc(O)c3ccccc3c2O)cc1`, the IC50 is > 80 µM (inactive).

For `CCC1(C)CC(C(N)=S)CCO1` (stereo not drawn), the IC50 is > 80 µM (inactive).

As for `COc1cccc(C2(c3cccc(OC)c3)CC2C(=O)Nc2ccc(F)cc2)c1` (stereo not drawn), the IC50 is > 80 µM (inactive).

Regarding `O=C1CCC[C@@H]2[C@@H](Cc3ccccc3)[C@H](N3CCN(c4ccccc4)CC3)C[C@@H]3CCN1[C@@H]32`, the IC50 is > 80 µM (inactive).

Turning to `O=C1C=CC(=O)N1CCNc1ncc(C(F)(F)F)cc1Cl`, the IC50 was 34.8 µM.

On to `CCOc1ccccc1NS(=O)(=O)c1c(C)noc1C`, for which the IC50 is > 80 µM (inactive).

In the case of `O=S(=O)(Nc1cc(Sc2cccc3cccnc23)c(O)c2ccccc12)c1ccc(F)cc1`, the IC50 was 59.4 µM.

Turning to `COc1ccc(CCn2c(NN=C(C)C)nc3c2c(=O)[nH]c(=O)n3C)cc1`, the IC50 is > 80 µM (inactive).

On to `O=C(NC1=CC(=O)c2ccccc2C1=O)c1ccccc1`, for which the 50% inhibitory concentration (IC50) is 38.2 µM.

As for `O=C(Nc1ccc(N2CCOCC2)c(Cl)c1)c1ccc(Cl)cc1`, the IC50 was > 80 µM (inactive).

As for `O=c1[nH]nc(CNc2ccc(O)cc2)c2ccccc12`, the IC50 was > 80 µM (inactive).

Take `Cc1ccc(-n2sc3ccccc3c2=O)cc1`: the IC50 was 19.1 µM.

Take `O=c1[nH]c2ccc(NCc3ccccc3OCc3ccc(Cl)cc3)cc2[nH]1`: the IC50 is > 80 µM (inactive).

For the molecule `COc1ccc(OC)c2c1C(=O)C(Cl)=C(Cl)C2=O`, the half-maximal inhibitory concentration (IC50) was 20.3 µM.

As for `O=C(CNC(=O)c1ccc(Br)cc1)NCC(=O)OCC(=O)c1ccc([N+](=O)[O-])cc1`, the IC50 was > 80 µM (inactive).

In the case of `Cc1cc(C)c2c(=O)n(CC(=O)Nc3cccc(F)c3)sc2n1`, the IC50 was 41.6 µM.

Take `CCn1c(=O)n(CC)c2cc(N3CCCC3)c(NC(=O)c3cccc(C)c3)cc21`: the IC50 was > 80 µM (inactive).

As for `CC1(C)Cc2c(sc3nc4n(-c5ccccc5)c(=O)c(CCC(=O)O)nn4c(=O)c23)CO1`, the half-maximal inhibitory concentration (IC50) was 11.7 µM.

As for `CC(NC(=O)c1sc2cc([N+](=O)[O-])ccc2c1Cl)C(C)(C)C` (stereo not drawn), the IC50 is > 80 µM (inactive).

Regarding `CC(=O)Nc1cc(OC(C)=O)c2nonc2c1OC(C)=O`, the IC50 is > 80 µM (inactive).

`CN(C)S(=O)(=O)c1cccc(-n2sc3ccccc3c2=O)c1`: the IC50 is 12.8 µM.

Regarding `O=C(CN1CCN(c2ccc(O)cc2)CC1)Nc1cc(S(=O)(=O)N2CCOCC2)ccc1Cl`, the IC50 was > 80 µM (inactive).

For the molecule `O=c1[nH]c2ccccc2n2c(-c3ccccc3)nnc12`, the IC50 is 13.2 µM.

In the case of `Cn1c(=O)[nH]c(=O)c2c1nc(SCCN1CCCCC1)n2CCCc1ccccc1`, the IC50 was 56.7 µM.

On to `NCCNc1ccc(C(=O)N2c3ccccc3Sc3ccccc32)cc1[N+](=O)[O-]`, for which the concentration for half-maximal inhibition (IC50) was 23.5 µM.

In the case of `NS(=O)(=O)c1ccc(-c2ccc(C=C3C(=O)NC(=O)NC3=O)o2)cc1`, the IC50 was 40.2 µM.

As to `NCCc1cc(O)c(O)cc1O`, the IC50 is 39.1 µM.

As for `O=C(Cn1sc2ccccc2c1=O)Nc1ccc(Cl)cc1`, the IC50 was 16 µM.

Consider `C[C@H](CO)N1C[C@H](C)[C@@H](CN(C)C(=O)Nc2ccc(C(F)(F)F)cc2)Oc2c(cccc2N(C)C)C1=O`, for which the IC50 is > 80 µM (inactive).

For `COc1c(O)c(O)c2oc(-c3ccccc3)cc(=O)c2c1OC`, the 50% inhibitory concentration (IC50) is 66.9 µM.

`CCOC(=O)Nc1ccc(NCc2ccc(F)cc2)nc1N`: the IC50 was > 80 µM (inactive).

In the case of `COc1ccc(C2(CNC(=O)c3ccc(OC)c([N+](=O)[O-])c3)CCCCC2)cc1OC`, the IC50 was > 80 µM (inactive).

With `O=S(=O)(Nc1cc(Sc2ncn[nH]2)c(O)c2ccccc12)c1ccccc1`, the IC50 was 23.9 µM.

On to `Cc1ccc(S(=O)(=O)C=CS(=O)(=O)c2ccc(C)cc2)cc1`, for which the 50% inhibitory concentration (IC50) is 41.2 µM.

With `C#CCCc1cscc1/C=[N+](\[O-])c1ccc(C(=O)OCC)cc1`, the IC50 was 36.4 µM.

Turning to `[O-]/[N+](=C\c1ccncc1)c1ccccc1`, the IC50 was > 80 µM (inactive).

As to `Nc1c(O)cccc1C(=O)O`, the half-inhibitory concentration (IC50) was 40.9 µM.

In the case of `COc1cc(Sc2ccc(C)cc2)c(OC)cc1N`, the IC50 was > 80 µM (inactive).

For `O=C(Cc1ccccc1)NCC(=O)OCC(=O)c1ccc([N+](=O)[O-])cc1`, the half-maximal inhibitory concentration (IC50) was 57.9 µM.

Regarding `COc1ccc(S(=O)(=O)/N=C2\C=C(Nc3ccc(O)cc3)C(=O)c3ccccc32)cc1`, the IC50 is > 80 µM (inactive).

On to `CN1CCN(C(=S)C(=O)Nc2ccc(Br)cc2)CC1`, for which the IC50 was 57.7 µM.

As for `CCOc1ccc(N(CC(=O)N/N=C/c2cc([N+](=O)[O-])ccc2Cl)S(C)(=O)=O)cc1`, the IC50 is > 80 µM (inactive).

For `Cc1ccc(NC(=O)Cn2sc3ccccc3c2=O)cc1`, the IC50 is 14.4 µM.

Regarding `O=[N+]([O-])c1cccc(SSc2cccc([N+](=O)[O-])c2)c1`, the IC50 is 71.5 µM.

For `C=CCc1ccccc1OCC(=O)N/N=C/c1ccccc1OCC`, the IC50 is > 80 µM (inactive).

Take `O=[N+]([O-])c1ccc(Sc2cccc3cccnc23)c2cccnc12`: the IC50 is > 80 µM (inactive).

On to `COc1cccc(/C=N/NC(=O)c2c(C)nc3ccc(Br)cn23)c1`, for which the IC50 is 52.3 µM.

With `CNCc1ccccc1Sc1cc(O)ccc1O`, the concentration for half-maximal inhibition (IC50) was 54.5 µM.

For `CC(C)(C)c1ccc(C(=O)Nc2sc3c(c2C(=O)O)CCC3)cc1`, the IC50 was 12.7 µM.

With `CCN1/C(=C/C=C/C=C/C=C/c2sc3ccccc3[n+]2CC)Sc2ccccc21`, the IC50 is > 80 µM (inactive).

Take `COc1cc(CN2CCN(CCCc3ccccc3)C(CCO)C2)cc(OC)c1O` (stereo not drawn): the IC50 is > 80 µM (inactive).
